From patent US20170172959A1, “D-SERINE FOR THE TREATMENT OF VISUAL SYSTEM DISORDERS” (Allergan, Inc., priority 2011, published 2017)
“Also recorded” adds a separate entry of the source.

Key:
[1] = tested on: slices of kitten visual cortex; conditions: Neuroscience Letters 303 (2001) 95-98; cited from earlier work
[2] = tested on: primary visual cortex of adult rats; test: LTP in visual cortex slice (fEPSP amplitude after theta burst stimulation); assay type: cell-based; conditions: adult Sprague Dawley rat visual cortex slices; compound infused 15 minutes before LTP induction; LTP values at 30 minutes after induction; FIG. 1
Description: LTP in Visual Cortex Slice: Following decapitation of the rat, the brain was rapidly removed and immersed in ice-cold artificial cerebrospinal fluid (ACSF) containing 124 mM NaCl, 3 mM KCl, 1.25 mM KH2PO4, 3.4 mM CaCl2, 2.5 mM MgSO4, 26 mM NaHCO3, and 10 mM D-glucose. A block of visual cortex was created by removing the frontal 2/3 portion of the brain and the cerebellum. Coronal visual cortex slices of 375 μm were prepared from adult Sprague Dawley (SD) rats using a vibratome (VT 1000 S, Leica). The slices were maintained in an interface recording chamber perfused with preheated ACSF. Slices were continuously perfused with this solution at a rate of 1.00-1.50 ml/min while the surface of the slices was exposed to warm, humidified 95% O2/5% CO2 and maintained at 31±1° C. Visual cortex slices were allowed to recover for 1 hr before recording began. […] This was repeated 2 additional times with a 1 minute intertrain interval, and the level of LTP was recorded for at least 30 min. Changes in amplitude of the synaptic response were used to measure the extent of LTP because it was determined to be the more consistent parameter than the slope of the response. […] Statistical comparisons were done with LTP values recorded at 30 minutes after induction.

[3] = tested on: blue-light treated Long-Evans rats; test: Contrast sensitivity by sweep VEP in rats with retinal damage induced by blue-light exposure; assay type: in vivo, rat; conditions: 100 or 600 mg/kg injected, saline control, cross-over; measured 30 minutes after treatment; spatial frequency 0.575 cpd; sixteen (600 mg/kg) and fifty weeks (100 mg/kg) after blue-light treatment; FIG. 3
Description: Two doses of D-serine were tested and vehicle (saline) was used as a control. Half of the rats were injected with either 100 or 600 mg/kg D-serine and the other half with saline in the first test; cross-over exposure took place one week later; the spatial frequencies were fixed at 0.575 cycles per degree (cpd). In FIG. 3, the mean values of contrast sensitivity are shown for rats treated with D-serine or saline, with a baseline taken prior to treatment (“pre”) and the contrast sensitivity measured 30 minutes after treatment (“post”).
Sweep visually evoked potential (sweep VEP, sVEP), which was first introduced by Regan in 1973, has become an important technique to measure visual function (VF). It is an objective method that can be used to assess contrast sensitivity (CS) in infants, young children and people with special needs. It was adapted to measure CS in animals.
VEP recording: The recording electrodes were permanently implanted into the right visual cortex of Long Evans rats at lambda and 4.5 mm lateral to the midline, to a depth of 800 microns (layer III/IV). […]
Visual stimuli: Stimuli were presented on a CRT computer monitor and consist of full-field sine-wave gratings at fixed special frequency (0.5, 0.575 or 0.65 cpd in FIG. 1 and 0.575 cpd in FIG. 2), reversing at 6.25 Hz. […] Contrast sensitivity (CS) is calculated as 1/CT.

Structure (SMILES): N[C@H](CO)C(=O)O [D-serine]
- LTP enhancement by D-serine alone [1]: did not enhance LTP
- effect on LTP suppression by the co-agonist site antagonist 7-chlorokynurenic acid [1]: only produced a reversal of the suppressant effects
- long-term potentiation (LTP) in the primary visual cortex [2]: dose-dependently facilitates long-term potentiation (LTP); also recorded: significantly enhanced the LTP
- contrast sensitivity [3]: improved the contrast sensitivity; also recorded: dose-dependent improvement in contrast sensitivity; also recorded: enhances contrast sensitivity and visual function
